Like-named read-outs stand apart in the source and are kept apart here.
Experiments:
[1] = format: physicochemical

## O.O.O.O.O.O.[Fe+3] [Fe^III/II(H2O)6, reference compound]
[1]; pH 0
  E1/2, V vs. RHE: +0.77 V vs. RHE

## Oc1cccc2c1[O][Ti-2]13([O]2)([O]c2cccc(O)c2[O]1)[O]c1cccc(O)c1[O]3.[K+].[Na+] [Ti(pyrogallate)^2−/3−, Sodium potassium titanium(IV) trispyrogallate]
[1]; pH 9.8
  E1/2, V vs. RHE: −0.55 V vs. RHE

## CC(O)C(=O)[O-].CC(O)C(=O)[O-].O=C([O-])c1ccccc1O.[Ti+3] [Ti^IV/III(lactate)2(salicylate), titanium bis-lactate mono-salicylate]
physchem
  solubility: ≥ 1500 mM

## Sodium titanium(IV) triscitrate [Ti(citrate)3^2−/3−]
[1]; pH 5
  E1/2, V vs. RHE: −0.04 V vs. RHE

## iron tris-(α-hydroxyacetate) [Fe^III/II(α-hydroxyacetate)3]
[1]; pH 8.1
  E1/2, V vs. RHE: −0.50 V vs. RHE

## iron tris-malate [Fe^III/II(malate)3]
[1]; pH 9.2
  E1/2, V vs. RHE: −0.30 V vs. RHE

## titanium bis-lactate [Ti^IV/III(lactate)2]
[1]; pH 2
  E1/2, V vs. RHE: −0.03 V vs. RHE
[1]; pH 3.6
  E1/2, V vs. RHE: −0.40 V vs. RHE
[1]; pH 9
  E1/2, V vs. RHE: −0.40 V vs. RHE

## titanium mono-lactate [Ti^IV/III(lactate)1]
[1]; pH 3.6
  E1/2, V vs. RHE: −0.34 V vs. RHE
[1]; pH 5.6
  E1/2, V vs. RHE: −0.40 V vs. RHE
[1]; pH 9
  E1/2, V vs. RHE: −0.54 V vs. RHE

From patent US10014546B2 (priority 2012, dated 2018)
